Experimental findings from patent publication US20240166652A1, “MODULATORS OF THE INTEGRATED STRESS PATHWAY” (Calico Life Sciences LLC, priority 2017, published 2024) are described below.

SMILES strings stand for the structures.

In this assay the test system is ATF4 luciferase reporter in HEK293T cells. The assay is described as follows: ATF4-Luc assay (ATF4 luciferase reporter, tunicamycin-treated HEK293T cells). Format: cell-based, human. Particulars: Homo sapiens, HEK-293T; HEK293T cells carrying the ATF4 luciferase reporter, 1 μg/mL tunicamycin, 7 hours. How it is done: In order to test exemplary compounds of the invention in a cellular context, a stable VWMD cell line was first constructed. The ATF4 reporter was prepared by fusing the human full-length ATF4 5′-UTR (NCBI Accession No. BC022088.2) in front of the firefly luciferase (FLuc) coding sequence lacking the initiator methionine as described in Sidrauski et al (eLife 2013). The construct was used to produce recombinant retroviruses using standard methods and the resulting viral supernatant was used to transduce HEK293T cells, which were then subsequently selected with puromycin to generate a stable cell line.
HEK293T cells carrying the ATF4 luciferase reporter were plated on polylysine coated 384-well plates (Greiner Bio-one) at 30,000 cells per well. Cells were treated the next day with 1 μg/mL tunicamycin and 200 nM of a compound of Formula (I) for 7 hours. Luminescence was measured using One Glo (Promega) as specified by the manufacturer. Cells were maintained in DMEM with L-glutamine supplemented with 10% heat-inactivated FBS (Gibco) and Antibiotic-Antimycotic solution (Gibco).
Table 2 below summarizes the EC50 data obtained using the ATF4-Luc assay for exemplary compounds of the invention.
Turning to `O=C(COCCc1ccc(F)cc1)NC12CC(NC(=O)COc3ccc(Cl)c(F)c3)(C1)C2` [Compound 134, 2-(4-chloro-3-fluorophenoxy)-N-(3-{2-[2-(4-fluorophenyl)ethoxy]acetamido}-bicyclo[1.1.1]pentan-1-yl)acetamide], the EC50 was in the range of 50 to 250 nM.
On to `O=C(COCCc1ccc(Cl)cc1)NC12CC(NC(=O)COc3ccc(Cl)c(F)c3)(C1)C2` [Compound 135, 2-(4-chloro-3-fluorophenoxy)-N-(3-{2-[2-(4-chlorophenyl)ethoxy]acetamido}-bicyclo[1.1.1]pentan-1-yl)acetamide], for which the EC50 was in the range of 250 to 500 nM.
For `Cc1cccc(CCOCC(=O)NC23CC(NC(=O)COc4ccc(Cl)c(F)c4)(C2)C3)c1` [Compound 136, 2-(4-chloro-3-fluorophenoxy)-N-(3-{2-[2-(3-methylphenyl)ethoxy]acetamido}-bicyclo[1.1.1]pentan-1-yl)acetamide], the EC50 was 250 to 500 nM.
The value for `Cc1ccc(CCOCC(=O)NC23CC(NC(=O)COc4ccc(Cl)c(F)c4)(C2)C3)cc1` [Compound 137, 2-(4-chloro-3-fluorophenoxy)-N-(3-{2-[2-(4-methylphenyl)ethoxy]acetamido}-bicyclo[1.1.1]pentan-1-yl)acetamide] was 500 to 2000 nM.
The value for `N#Cc1cccc(COCC(=O)NC23CC(NC(=O)COc4ccc(Cl)c(F)c4)(C2)C3)c1` [Compound 138, 2-(4-chloro-3-fluorophenoxy)-N-(3-{2-[(3-cyanophenyl)methoxy]acetamido}-bicyclo[1.1.1]pentan-1-yl)acetamide] was 250 to 500 nM.
For `N#Cc1ccc(COCC(=O)NC23CC(NC(=O)COc4ccc(Cl)c(F)c4)(C2)C3)cc1` [Compound 139, 2-(4-chloro-3-fluorophenoxy)-N-(3-{2-[(4-cyanophenyl)methoxy]acetamido}-bicyclo[1.1.1]pentan-1-yl)acetamide], the concentration for a half-maximal effect (EC50) lay in the range of 250 to 500 nM.
The same measure for `Cc1cccc(COCC(=O)NC23CC(NC(=O)COc4ccc(Cl)c(F)c4)(C2)C3)c1` [Compound 140, 2-(4-chloro-3-fluorophenoxy)-N-(3-{2-[(3-methylphenyl)methoxy]acetamido}-bicyclo[1.1.1]pentan-1-yl)acetamide]: 50 to 250 nM; for `CN(C)c1cccc(COCC(=O)NC23CC(NC(=O)COc4ccc(Cl)c(F)c4)(C2)C3)c1` [Compound 141]: 500 to 2000 nM; for `O=C(COCc1ccc(F)cc1)NC12CC(NC(=O)COc3ccc(Cl)c(F)c3)(C1)C2` [Compound 142, 2-(4-chloro-3-fluorophenoxy)-N-(3-{2-[(4-fluorophenyl)methoxy]acetamido}-bicyclo[1.1.1]pentan-1-yl)acetamide]: 10 to 50 nM.
Turning to `CN(C)c1ccc(CCOCC(=O)NC23CC(NC(=O)COc4ccc(Cl)c(F)c4)(C2)C3)cc1` [Compound 143, 2-(4-chloro-3-fluorophenoxy)-N-[3-(2-{2-[4-(dimethylamino)phenyl]ethoxy}-acetamido)bicyclo[1.1.1]pentan-1-yl]acetamide], the EC50 is greater than 2000 nM.
The same measure for `Cc1ccc(COCC(=O)NC23CC(NC(=O)COc4ccc(Cl)c(F)c4)(C2)C3)cc1` [Compound 144, 2-(4-chloro-3-fluorophenoxy)-N-(3-{2-[(4-methylphenyl)methoxy]acetamido}-bicyclo[1.1.1]pentan-1-yl)acetamide]: 250 to 500 nM.
The same measure for `CN(C)c1cccc(CCOCC(=O)NC23CC(NC(=O)COc4ccc(Cl)c(F)c4)(C2)C3)c1` [Compound 145, 2-(4-chloro-3-fluorophenoxy)-N-[3-(2-{2-[3-(dimethylamino)phenyl]ethoxy}-acetamido)bicyclo[1.1.1]pentan-1-yl]acetamide]: greater than 2000 nM; for `O=C(COc1cccc(Cl)c1)NC12CC(NC(=O)COc3ccc(Cl)c(F)c3)(C1)C2` [Compound 146, 2-(4-chloro-3-fluorophenoxy)-N-{3-{2-(3-chlorophenoxy)acetamido}-bicyclo[1.1.1]pentan-1-yl}acetamide]: less than 10 nM; for `O=C(CCOc1cccc(Cl)c1)NC12CC(NC(=O)COc3ccc(Cl)c(F)c3)(C1)C2` [Compound 147, N-{3-[2-(4-chloro-3-fluorophenoxy)acetamido]bicyclo[1.1.1]pentan-1-yl}-3-(3-chlorophenoxy)propanamide]: 50 to 250 nM.
On to `O=C(CCCOc1cccc(Cl)c1)NC12CC(NC(=O)COc3ccc(Cl)c(F)c3)(C1)C2` [Compound 148, N-{3-[2-(4-chloro-3-fluorophenoxy)acetamido]bicyclo[1.1.1]pentan-1-yl}-4-(3-chlorophenoxy)butanamide], for which the EC50 lay in the range of 50 to 250 nM.
The same measure for `O=C(COCCc1ccc(F)cc1)NC12CC(NC(=O)COc3ccc(Cl)c(Cl)c3)(C1)C2` [Compound 149, 2-(3,4-dichlorophenoxy)-N-(3-{2-[2-(4-fluorophenyl)ethoxy]acetamido}-bicyclo[1.1.1]pentan-1-yl)acetamide]: 10 to 50 nM; for `O=C(COCCc1cccc(F)c1)NC12CC(NC(=O)COc3ccc(Cl)c(Cl)c3)(C1)C2` [Compound 150, 2-(3,4-dichlorophenoxy)-N-(3-{2-[2-(3-fluorophenyl)ethoxy]acetamido}-bicyclo[1.1.1]pentan-1-yl)acetamide]: 10 to 50 nM.
The same measure for `O=C(COCCc1cccc(Cl)c1)NC12CC(NC(=O)COc3ccc(Cl)c(Cl)c3)(C1)C2` [Compound 151, 2-[2-(3-chlorophenyl)ethoxy]-N-{3-[2-(3,4-dichlorophenoxy)acetamido]-bicyclo[1.1.1]pentan-1-yl}acetamide]: less than 10 nM; for `Cc1cccc(CCOCC(=O)NC23CC(NC(=O)COc4ccc(Cl)c(Cl)c4)(C2)C3)c1` [Compound 152, 2-(3,4-dichlorophenoxy)-N-(3-{2-[2-(3-methylphenyl)ethoxy]-acetamido}bicyclo[1.1.1]pentan-1-yl)acetamide]: 50 to 250 nM.
The same measure for `Cc1cccc(COCC(=O)NC23CC(NC(=O)COc4ccc(Cl)c(Cl)c4)(C2)C3)n1` [Compound 153, 2-(3,4-dichlorophenoxy)-N-(3-{2-[(6-methylpyridin-2-yl)methoxy]acetamido}bicyclo[1.1.1]pentan-1-yl)acetamide]: 50 to 250 nM; for `Cc1ccc(CCOCC(=O)NC23CC(NC(=O)COc4ccc(Cl)c(Cl)c4)(C2)C3)cc1` [Compound 154, 2-(3,4-dichlorophenoxy)-N-(3-{2-[2-(4-methylphenyl)ethoxy]acetamido}-bicyclo[1.1.1]pentan-1-yl)acetamide]: 250 to 500 nM.
For the compound `O=C(COCCc1ccc(Cl)cc1)NC12CC(NC(=O)COc3ccc(Cl)c(Cl)c3)(C1)C2` [Compound 155, 2-[2-(4-chlorophenyl)ethoxy]-N-{3-[2-(3,4-dichlorophenoxy)acetamido]bicyclo-[1.1.1]pentan-1-yl}acetamide], the EC50 lay in the range of 10 to 50 nM.
In the case of `O=C(COCc1ccc(Cl)cc1)NC12CC(NC(=O)COc3ccc(Cl)c(Cl)c3)(C1)C2` [Compound 156, 2-[(4-chlorophenyl)methoxy]-N-{3-[2-(3,4-dichlorophenoxy)acetamido]-bicyclo[1.1.1]pentan-1-yl}acetamide], the half-maximal effective concentration (EC50) was 10 to 50 nM.
On to `O=C(COCc1ccc(F)cc1)NC12CC(NC(=O)COc3ccc(Cl)c(Cl)c3)(C1)C2` [Compound 157, 2-(3,4-dichlorophenoxy)-N-(3-{2-[(4-fluorophenyl)methoxy]acetamido}-bicyclo[1.1.1]pentan-1-yl)acetamide], for which the EC50 fell in the range of 10 to 50 nM.
The same measure for `O=C(COCc1cccc(Cl)c1)NC12CC(NC(=O)COc3ccc(Cl)c(Cl)c3)(C1)C2` [Compound 158, 2-[(3-chlorophenyl)methoxy]-N-{3-[2-(3,4-dichlorophenoxy)acetamido]-bicyclo[1.1.1]pentan-1-yl}acetamide]: less than 10 nM; for `N#Cc1ccc(COCC(=O)NC23CC(NC(=O)COc4ccc(Cl)c(Cl)c4)(C2)C3)cc1` [Compound 159, 2-[(4-cyanophenyl)methoxy]-N-{3-[2-(3,4-dichlorophenoxy)acetamido]-bicyclo[1.1.1]pentan-1-yl}acetamide]: 50 to 250 nM.
As to `Cc1ccc(COCC(=O)NC23CC(NC(=O)COc4ccc(Cl)c(Cl)c4)(C2)C3)cc1` [Compound 160, 2-(3,4-dichlorophenoxy)-N-(3-{2-[(4-methylphenyl)methoxy]-acetamido}bicyclo[1.1.1]pentan-1-yl)acetamide], the EC50 was in the range of 50 to 250 nM.
The same measure for `N#Cc1cccc(COCC(=O)NC23CC(NC(=O)COc4ccc(Cl)c(Cl)c4)(C2)C3)c1` [Compound 161, 2-[(3-cyanophenyl)methoxy]-N-{3-[2-(3,4-dichlorophenoxy)acetamido]bicyclo[1.1.1]pentan-1-yl}acetamide]: 50 to 250 nM.
The value for `Cc1cccc(COCC(=O)NC23CC(NC(=O)COc4ccc(Cl)c(Cl)c4)(C2)C3)c1` [Compound 162, 2-(3,4-dichlorophenoxy)-N-(3-{2-[(3-methylphenyl)methoxy]-acetamido}bicyclo[1.1.1]pentan-1-yl)acetamide] was 10 to 50 nM; that for `O=C(CCOCc1cccc(Cl)c1)NC12CC(NC(=O)COc3ccc(Cl)c(F)c3)(C1)C2` [Compound 163, N-{3-[2-(4-chloro-3-fluorophenoxy)acetamido]bicyclo[1.1.1]pentan-1-yl}-3-[(3-chlorophenyl)methoxy]propanamide] was 250 to 500 nM.
Regarding `O=C(COc1ccc(Cl)c(F)c1)NC12CC(NC(=O)OCc3cccc(Cl)c3)(C1)C2` [Compound 164, (3-chlorophenyl)methyl {3-[2-(4-chloro-3-fluorophenoxy)-acetamido]bicyclo[1.1.1]pentan-1-yl}carbamate], the EC50 is 500 to 2000 nM.
